Where two headings read alike, the source gives them in different places.
What was measured:
XPO1 [1] = target: T1, XPO1 (Homo sapiens, UniProt O14980); settings: non-neuronal cell lines (ref 24); cited from earlier work
Target sequence in this assay (O14980 whole entry, species assumed): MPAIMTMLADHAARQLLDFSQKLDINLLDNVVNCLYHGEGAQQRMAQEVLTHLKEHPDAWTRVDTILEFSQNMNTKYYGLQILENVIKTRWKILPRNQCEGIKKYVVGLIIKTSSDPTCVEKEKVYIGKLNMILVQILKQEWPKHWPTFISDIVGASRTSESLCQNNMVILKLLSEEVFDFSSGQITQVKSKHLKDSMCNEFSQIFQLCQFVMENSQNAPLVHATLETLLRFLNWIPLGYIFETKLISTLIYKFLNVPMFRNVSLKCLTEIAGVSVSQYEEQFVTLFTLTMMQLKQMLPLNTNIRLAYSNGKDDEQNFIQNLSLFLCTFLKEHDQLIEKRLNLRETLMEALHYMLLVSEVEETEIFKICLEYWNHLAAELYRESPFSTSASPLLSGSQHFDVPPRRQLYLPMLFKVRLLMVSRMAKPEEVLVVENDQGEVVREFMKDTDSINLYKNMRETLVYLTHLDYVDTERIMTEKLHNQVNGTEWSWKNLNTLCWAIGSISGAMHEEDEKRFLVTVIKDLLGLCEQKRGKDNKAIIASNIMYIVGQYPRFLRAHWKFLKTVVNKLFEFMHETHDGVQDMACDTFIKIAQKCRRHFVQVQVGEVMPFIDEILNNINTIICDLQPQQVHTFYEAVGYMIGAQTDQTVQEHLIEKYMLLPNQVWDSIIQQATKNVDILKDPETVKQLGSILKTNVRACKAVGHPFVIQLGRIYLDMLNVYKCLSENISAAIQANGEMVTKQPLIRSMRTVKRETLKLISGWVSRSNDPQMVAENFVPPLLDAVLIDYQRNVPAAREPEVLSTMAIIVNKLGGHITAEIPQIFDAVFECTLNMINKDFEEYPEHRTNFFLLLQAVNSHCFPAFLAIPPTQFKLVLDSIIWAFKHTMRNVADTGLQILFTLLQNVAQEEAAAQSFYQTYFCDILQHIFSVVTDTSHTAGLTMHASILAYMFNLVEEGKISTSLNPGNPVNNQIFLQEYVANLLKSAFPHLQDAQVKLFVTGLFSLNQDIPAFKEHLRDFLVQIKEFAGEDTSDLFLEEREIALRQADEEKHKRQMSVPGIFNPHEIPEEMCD

XPO1 [2] = target: T1, XPO1; assay: Nuclear/cytoplasmic fractionation and qRT-PCR of C9orf72 iPSNs following Leptomycin B treatment; type: cell-based
Target sequence in this assay (O14980 whole entry): as the sequence (O14980 whole entry, species assumed) above
Experimental: Ethanol was used as vehicle control. iPSNs were rinsed in 1×PBS and nuclear/cytoplasmic fractionation was performed with the NE-PER Nuclear and Cytoplasmic Extraction Kit (Thermo Fisher Scientific) according to manufacturer protocol. Following the addition of C2 buffer, 25 μL of sample was added to 25 μL 2× Laemmli buffer (BioRad) and set aside as protein input. An additional 25 μL was set aside on ice as RNA input. From each nuclear and cytoplasmic fraction obtained, 25 μL sample was added to 25 μL 2× Laemmli buffer for protein analysis. An additional 25 μL was added to 500 μL RLT buffer (QIAGEN) for RNA analysis. The remainder of each fraction was stored at −80° C. At the completion of the fractionation, 500 μL RLT buffer was added to the RNA input sample. RNA isolation, cDNA synthesis, and qRT-PCR were performed as described below. […] RNA from immunoprecipitated complexes or nuclear and cytoplasmic cellular fractions was isolated with a RNeasy kit (QIAGEN) according to manufacturer protocol. RNA concentrations were determined with a NanoDrop 1000 spectrophotometer (Thermo Fisher Scientific). […]

XPO1 [3] = target: T1, XPO1; assay: SIM of nuclei isolated from wildtype iPSNs following Leptomycin B treatment; type: cell-based; settings: 10 nM, ~18 hours
Target sequence in this assay (O14980 whole entry): as the sequence (O14980 whole entry, species assumed) above
Experimental: Leptomycin B and ASO Treatment of iPSC Derived Neurons Leptomycin B: On day 18 of differentiation, 10 nM Leptomycin B (LMB, Cayman Chemicals) was added to the culture media and iPSNs were returned to the incubator for ˜18 hours before downstream analyses were conducted. Ethanol was used as vehicle control. Nuclei were isolated from iPSNs and postmortem human brain and spinal cord tissue using the Nuclei Pure Prep Nuclei Isolation Kit (Sigma Aldrich) following manufacturer protocol as previously described (13). Briefly, iPSN lysates were prepared by rinsing iPSNs with 1×PBS, adding mL supplied lysis buffer supplemented with DTT and Triton X-100 directly to each well, and harvesting iPSNs with a cell scraper. […] All lysates were transferred to a 50 mL conical tube and vortexed. Sucrose gradients were assembled following manufacturer protocol. A 1.85 M sucrose gradient was used to enrich for neuronal nuclei. Samples were centrifuged at 15,600 rpm and 4° C. using a Swi32T swinging bucket rotor and Beckman ultracentrifuge (Beckman Coulter) for 45 minutes. The supernatant was discarded, and the remaining nuclei pellet was resuspended in 1 mL of supplied nuclei storage buffer to wash the nuclei of any remaining sucrose. Resuspended nuclei were centrifuged at 2500 rpm and 4° C. for 5 minutes. The supernatant was once again discarded, and the resulting nuclei pellet was vortexed in 1 mL of supplied nuclei storage buffer to resuspend for downstream imaging analysis. […] Nuclei staining and super resolution imaging was performed as previously described (6). Following nuclei isolation, 10-50 μL of final nuclei/storage buffer suspension was centrifuged onto collagen coated (1 mg/mL; Advanced Biomatrix) slides with a CytoSpin 4 centrifuge (Thermo Fisher Scientific). Nuclei were immediately fixed with 4% PFA for 5 minutes, washed with 1×PBS 3×10 minutes and permeabilized with 1×PBST containing 0.1% Triton X-100 for 15 minutes. Nuclei were then blocked with 10% normal goat serum diluted in 1×PBS for 1 hour at room temperature and incubated in primary antibody diluted in block (10% normal goat serum in 1×PBS) overnight at 4° C. […] After 16-18 hours, nuclei were washed with 1×PBS 3×10 minutes, incubated in secondary antibody diluted in block (10% normal goat serum in 1×PBS) for 1 hour at room temperature (See Table B for antibody information). Nuclei were washed with 1×PBS 3×10 minutes and cover slipped using Prolong Gold Antifade Reagent (Invitrogen) and 18 mm×18 mm 1.5 high tolerance coverslips (MatTek). NeuN or GFP positive nuclei (see Description of the Figures) were identified via microscope eye pieces. A single z section ˜110 nm thick was acquired by widefield imaging to confirm NeuN or GFP positivity. The immunostained Nup or ESCRT-III protein was subsequently imaged by super resolution structured illumination microscopy (SIM) using a Zeiss ELYRA 51. For each image, 5 grid rotations and optimal z sectioning parameters were employed. Following image acquisition, SIM images were reconstructed using default SIM processing parameters with Zeiss Zen Black 2.3 SP1 software. Automated nucleoporin spot and volume analysis was conducted as previously described (6, 26) using Imaris version 9.2.0 (Bitplane) and the 3D suite plugin in FIJI version 1.52p. Nucleoporin spots were counted using automated spot detection. […] The total number of nucleoporin spots was determined using a 3D-rendering of segmented SIM images comprising the entire depth of each nucleus.

XPO1 [4] = target: T1, XPO1; assay: Nuclear/cytoplasmic fractionation and western blot of iPSNs following Leptomycin B treatment; type: cell-based; settings: iPSNs (FIGS. 12A-12C)
Target sequence in this assay (O14980 whole entry): as the sequence (O14980 whole entry, species assumed) above
Experimental: Leptomycin B and ASO Treatment of iPSC Derived Neurons Leptomycin B: On day 18 of differentiation, 10 nM Leptomycin B (LMB, Cayman Chemicals) was added to the culture media and iPSNs were returned to the incubator for ˜18 hours before downstream analyses were conducted. Ethanol was used as vehicle control. iPSNs were rinsed in 1×PBS and nuclear/cytoplasmic fractionation was performed with the NE-PER Nuclear and Cytoplasmic Extraction Kit (Thermo Fisher Scientific) according to manufacturer protocol. Following the addition of C2 buffer, 25 μL of sample was added to 25 μL 2× Laemmli buffer (BioRad) and set aside as protein input. An additional 25 μL was set aside on ice as RNA input. From each nuclear and cytoplasmic fraction obtained, 25 μL sample was added to 25 μL 2× Laemmli buffer for protein analysis. An additional 25 μL was added to 500 μL RLT buffer (QIAGEN) for RNA analysis. The remainder of each fraction was stored at −80° C. At the completion of the fractionation, 500 μL RLT buffer was added to the RNA input sample. RNA isolation, cDNA synthesis, and qRT-PCR were performed as described below. Western blot analysis was conducted as described below. Equal volume of each sample (10 μL) was loaded in acrylamide gels. […] The supernatant was transferred to a new Eppendorf tube and protein concentrations were determined using the BCA protein estimation assay kit (Thermo Fisher Scientific). […]

stathmin-2 mRNA = assay: qRT-PCR for full length and truncated stathmin-2 mRNA; type: cell-based, human; settings: C9orf72 and sALS iPSNs; day 46; 3 week exposure; GAPDH normalization
Experimental: (§1) Non-targeting scrambled control (676630): […] (SEQ ID NO:2), CHMP7 ASO 1 (1508916): […] (SEQ ID NO:3), CHMP7 ASO 2 (1508917): […] (SEQ ID NO:4), and CHMP7 ASO 3 (1508918): […] (SEQ ID NO:14) were generously provided by Ionis Pharmaceuticals. On day 25 of differentiation, ASOs were added to the culture media at concentrations of […] as indicated in Description of the Figures. Media was exchanged and ASO replaced every 3 days until iPSNs were subjected to downstream analyses on day 40 of differentiation for western blot, SIM, and glutamate excitotoxicity and day 46 of differentiation for stathmin-2 qRT-PCR, Ran GTPase localization, and TDP-43 localization.
RNA from iPSNs was isolated with a RNeasy kit (QIAGEN) according to manufacturer protocol. RNA concentrations were determined with a NanoDrop 1000 spectrophotometer (Thermo Fisher Scientific). For CHMP7 ASO experiments, RNA was isolated on day 46 of differentiation following 3 weeks exposure to 5 μM CHMP7 ASO2 or scrambled control ASO. For CHMP7 overexpression experiments, RNA was isolated on day 32 of differentiation (2 weeks after plasmid nucleofection). […]

[5] = system: POM121, Nup133, Nup50, FG Nups; assay: SIM imaging of nucleoporins in nuclei isolated from CHMP7 ASO treated iPSNs; type: cell-based, human; settings: 5 μM, 2-week exposure
Experimental: C9orf72 repeat ASO: Sense strand targeting G4C2 ASO (619251) (13) was generously provided by Ionis Pharmaceuticals. On day 20 of differentiation, 5 μM sense targeting ASO was added to the culture media. Media was exchanged and ASO replaced on day 22 of differentiation and downstream analyses were performed on day 25 of differentiation. CHMP7 ASO: Non-targeting scrambled control (676630): […] (SEQ ID NO: 2), CHMP7 ASO 1 (1508916): […] (SEQ ID NO: 3), CHMP7 ASO 2 (1508917): […] (SEQ ID NO: 4), and CHMP7 ASO 3 (1508918): […] (SEQ ID NO:14) were generously provided by Ionis Pharmaceuticals. On day 25 of differentiation, ASOs were added to the culture media at concentrations of 1, 5, or 10 μM as indicated in Description of the Figures. Media was exchanged and ASO replaced every 3 days until day 40 of differentiation.
Nuclei were isolated from iPSNs and postmortem human brain and spinal cord tissue using the Nuclei Pure Prep Nuclei Isolation Kit (Sigma Aldrich) following manufacturer protocol as previously described (13). Briefly, iPSN lysates were prepared by rinsing iPSNs with 1×PBS, adding […] supplied lysis buffer supplemented with DTT and Triton X-100 directly to each well, and harvesting iPSNs with a cell scraper. Postmortem brain and spinal cord lysates were prepared by homogenizing 150 mg fresh frozen tissue directly in supplied lysis buffer with a dounce homogenizer. All lysates were transferred to a 50 mL conical tube and vortexed. Sucrose gradients were assembled following manufacturer protocol. A 1.85 M sucrose gradient was used to enrich for neuronal nuclei. Samples were centrifuged at 15,600 rpm and 4° C. using a Swi32T swinging bucket rotor and Beckman ultracentrifuge (Beckman Coulter) for 45 minutes. The supernatant was discarded, and the remaining nuclei pellet was resuspended in 1 mL of supplied nuclei storage buffer to wash the nuclei of any remaining sucrose. Resuspended nuclei were centrifuged at 2500 rpm and 4° C. for 5 minutes. The supernatant was once again discarded, and the resulting nuclei pellet was vortexed in 1 mL of supplied nuclei storage buffer to resuspend for downstream imaging analysis. For western blots, washed nuclei were lysed in RIPA buffer as described below.
Nuclei staining and super resolution imaging was performed as previously described (6). Following nuclei isolation, 10-50 μL of final nuclei/storage buffer suspension was centrifuged onto collagen coated (1 mg/mL; Advanced Biomatrix) slides with a CytoSpin 4 centrifuge (Thermo Fisher Scientific). Nuclei were immediately fixed with 4% PFA for 5 minutes, washed with 1×PBS 3×10 minutes and permeabilized with 1×PBST containing 0.1% Triton X-100 for 15 minutes. Nuclei were then blocked with 10% normal goat serum diluted in 1×PBS for 1 hour at room temperature and incubated in primary antibody diluted in block (10% normal goat serum in 1×PBS) overnight at 4° C. (See Table B for antibody information). After 16-18 hours, nuclei were washed with 1×PBS 3×10 minutes, incubated in secondary antibody diluted in block (10% normal goat serum in 1×PBS) for 1 hour at room temperature (See Table B for antibody information). Nuclei were washed with 1×PBS 3×10 minutes and cover slipped using Prolong Gold Antifade Reagent (Invitrogen) and 18 mm×18 mm 1.5 high tolerance coverslips (MatTek). NeuN or GFP positive nuclei (see Description of the Figures) were identified via microscope eye pieces. A single z section ˜110 nm thick was acquired by widefield imaging to confirm NeuN or GFP positivity. The immunostained Nup or ESCRT-III protein was subsequently imaged by super resolution structured illumination microscopy (SIM) using a Zeiss ELYRA 51. For each image, 5 grid rotations and optimal z sectioning parameters were employed. Following image acquisition, SIM images were reconstructed using default SIM processing parameters with Zeiss Zen Black 2.3 SP1 software. […]

TDP-43 = assay: Immunostaining and confocal imaging for TDP-43 in iPSNs; type: cell-based, human; settings: sALS iPSNs; day 46; 3-week treatment
Experimental: as §1
On day 12 of differentiation, iPSNs were plated in 24 well optical bottom plates (Cellvis). […] Nuclear intensity and N/C ratios were calculated with FIJI as previously described (80). […]

iPSNs = assay: Glutamate toxicity, propidium iodide (PI) incorporation; type: cell-based, human
Experimental: On day 12 of differentiation, iPSNs were plated in 24 well optical bottom plates (Cellvis) at a density of 250,000 neurons per well. Neurons were rinsed with 1×PBS and fed with fresh stage 3 media daily remove dead cells and debris until day 25 of differentiation. On day 25 of differentiation, ASO treatment was initiated as described above. Every 3 days, iPSNs were rinsed 3× with 1×PBS and media and ASO were replaced. On day 40 of differentiation, iPSNs were washed with 1×PBS to remove any remaining debris and dead cells. Media was replaced with ACSF (Tocris) containing 0 or 10 μM glutamate (Sigma Aldrich). iPSNs were incubated at 37° C. with 5% CO2 for 4 hours. After 3.5 hours, one drop of NucBlue Live ReadyProbes (Thermo Fisher Scientific) and […] (Thermo Fisher Scientific) and returned to the incubator for 30 mins. iPSNs were imaged in an environmentally controlled chamber with a Zeiss LSM 800 confocal microscope. […] PI and DAPI spots were counted using FIJI.
On day 12 of differentiation, iPSNs were plated in 24 well optical bottom plates (Cellvis) at a density of 250,000 neurons per well. […] After 3.5 hours, one drop of NucBlue Live ReadyProbes (Thermo Fisher Scientific) and 1 μM propidium iodide (Thermo Fisher Scientific) and returned to the incubator for 30 minutes. iPSNs were imaged in an environmentally controlled chamber with a Zeiss LSM 800 confocal microscope. […]

[6] = C9orf72 and sALS iPSNs, day 40, compared to scrambled control ASO
[7] = C9orf72 iPSNs, compared to scrambled control ASO

## CCC(=C/[C@H](C)C/C=C/C(C)=C/[C@@H](C)C(=O)[C@@H](C)[C@H](O)[C@@H](C)C/C(C)=C/C(=O)O)/C=C/[C@@H]1OC(=O)C=C[C@@H]1C [LMB, Leptomycin B]
XPO1 [1]
  nuclear levels of DDX3X: increases
  nuclear levels of RanBP1: increases
XPO1 [2]; C9orf72 iPSNs (FIG. 12D)
  presence of G4C2 repeat RNA in the nuclear fraction: strongly increases
XPO1 [2]; C9orf72 iPSNs (FIG. 12E)
  presence of G2C4 repeat RNA in the nuclear fraction: strongly increases
XPO1 [3]
  CHMP7 in the nucleus: significant increase
  Nup50 immunoreactivity in nuclei: reduction
  Nup133 immunoreactivity in nuclei: reduction
  POM121 immunoreactivity in nuclei: reduction
  VPS4 immunoreactivity in nuclei: increase
XPO1 [4]
  nuclear levels of DDX3X: increases
  nuclear levels of RanBP1: increases

## TGTTACCCTCAGATACCGCC (listed as DNA, chemistry not given here) [CHMP7 ASO 2, CHMP7 targeting ASO provided by Ionis Pharmaceuticals; targets human CHMP7 pre-mRNA, RNase H based degradation]
stathmin-2 mRNA
  full length stathmin-2 mRNA levels: restored to levels observed in control iPSNs
  truncated stathmin-2 mRNA levels: restored to levels observed in control iPSNs
[5]; [6]
  Nup50 expression in iPSN nuclei and NPCs: significantly restored
  Nup133 expression in iPSN nuclei and NPCs: significantly restored
  POM121 expression in iPSN nuclei and NPCs: significantly restored
[5]; [7]
  Nup50 expression in iPSN nuclei and NPCs: significantly restored
  Nup133 expression in iPSN nuclei and NPCs: significantly restored
  POM121 expression in iPSN nuclei and NPCs: significantly restored
TDP-43
  nuclear TDP-43 localization: restored
iPSNs; C9orf72 and sALS iPSNs, two week treatment (FIG. 20I)
  sensitivity to glutamate induced excitotoxicity as measured by propidium iodide (PI) incorporation: significantly decreased
iPSNs; C9orf72 iPSNs, 2-week exposure to 5 μM ASO, 10 μM glutamate 4 hours (FIG. 4H)
  sensitivity to glutamate induced excitotoxicity as measured by propidium iodide (PI) incorporation: mitigates
